Assay results as given in patent publication US5238838A (Degussa Aktiengesellschaft, priority 1991, dated 1993).
“Also recorded” adds a separate entry of the source.

Tests used:
[1] = test system: carnitine amidase (raw extract of strain DSM 6230); assay: Activity test of the raw extract of strain DSM 6230 with enantiomerically pure D- and L-carnitine amide; assay type: biochemical; conditions: for Activity (mU/mg) / Activity (mU/ml): raw extract of strain DSM 6230, labelled amide as substrate, 50 mM, 30° C.
Method: After 3 days, the contents of the shaking flasks were centrifuged (10 min., 10000 rpms in a refrigerated centrifuge), and the sedimentated cells were taken up in 100 mM potassium phosphate buffer pH 7.5 (an approximately 20% microorganism suspension was produced).
The microorganisms in this suspension must be macerated in the customary manner (e.g. agitation with fine glass beads or ultrasound treatment). The cell maceration was carried out by means of wet grinding with glass beads (diameter 0.3 mm; 2 g beads per 1 ml cell suspension). The glass beads and the coarse cell fragments were centrifuged off by means of centrifugation in a refrigerated centrifuge (5 min. 12000 rpms). The clear supernatant was designated as raw extract and used for further experiments.
The materials for the activity test contained:
400 μl potassium phosphate buffer 0.1 M, pH 7.5
50 μl substrate in 0.1 M potassium phosphate buffer, pH 7.5
50 μl enzyme solution (raw extract)
The following were used as substrates:
a) DL-carnitine amide final concentration in the test 100 mM
b) D-carnitine amide final concentration in the test 50 mM c) L-carnitine amide final concentration in the test 50 mM
The enzyme test was carried out in 1.5 ml Eppendorf vessels at a temperature of 30° C. The reaction was started by the addition of enzyme solution and stopped by acidification. The precipitated protein was centrifuged off (Eppendorf centrifuge 5 min. 12500 rpms) and the supernatant examined. In order to determine the blank reading, a control specimen for the substrate and the enzyme solution was always used.
The definition of the enzyme unit is 1 mU=1 nM converted substrate per minute.
L-carnitine can be determined enzymatically with the carnitine acetyl transferase. The ammonia was determined on the one hand photometrically as indophenol and on the other hand enzymatically with the aid of glutamate dehydrogenase.
The raw extract of this strain was tested with enantiomerically pure D- and L-carnitine amide:
The raw extract was retested for D- and L-carnitine amide and the enzyme test was stopped after 10 min. (there is still sufficient L-carnitine amide in the test batch) and after 5 hours (the L-carnitine amide has reacted to a great extent or completely). The L-amidase activity, relative to the total amidase activity, was 100% after 10 min. and still over 99% after 5 hours.

L-carnitine amidase [2] = assay: Test for the induction of L-carnitine amidase; assay type: cell-based, strain DSM 6230; conditions: for Activity (mU/mg) / Activity (mU/ml): 5 g/l of the substance as inductor, 36 h, L-carnitine amide as substrate; for Induction of L-carnitine amidase (in words): strain DSM 6230
Method: (§1) In this test, various substances were examined for their induction action. At the same time, the growth on these compounds was followed. The medium used was a minimum medium with 1.0 g/l instead of 0.5 g/l yeast extract, to which 5 g/l of the substance to be tested were added in each instance. The culture without inductor contained 5 g/l yeast extract. All tests were carried out with 20 ml shaking cultures which were incubated 36 h at 30° C. and 120 rpms in a rotating [round]shaking machine. These cultures were inoculated with 1% of an initial culture of strain DSM 6230. L-carnitine amide was used as substrate for the enzyme test.
(§2) At the same time, the growth of the bacteria was followed in these carnitine amide concentrations. The culture conditions corresponded to those in example 3.

strain DSM 6230 = assay: Growth of strain DSM 6230 on the test substances (OD660); assay type: cell-based; conditions: for OD660: 5 g/l of the substance in minimum medium with 1.0 g/l yeast extract, 36 h, 30° C.; for Growth of the strain on the substance (in words): strain DSM 6230
Method: 1367 strains were isolated during the screening program. These strains were incubated in 100 ml Erlenmeyer flasks containing 20 ml of the particular enrichment medium in a rotary agitator at 30° C. and 120 rpms. The optical density at 660 nm was taken as an indication for the cell growth.
as §1, §2

L-carnitine amidase [3] = assay: Substrate spectrum of L-carnitine amidase; assay type: biochemical, strain DSM 6230; conditions: for Rel. activity (%): substrate 50 mM, 30° C., 100 mM potassium phosphate buffer pH 8
Method: The enzyme test was carried out at 30° C. in 100 mM potassium phosphate buffer pH 8. The substrate concentration was 50 mM.

[4] = test system: 20% cell suspension of the strain DSM 6230; assay: Conversion with whole cells; assay type: cell-based
From the text: The conversion with whole cells was examined by carrying out the customary enzyme test with a 20% cell suspension of the strain DSM 6230. Result: L-carnitine amide is converted by whole cells with 64% greater activity than by a macerated cell suspension of the same concentration. D-carnitine is not converted. It is therefore to be expected that the conversion of L-carnitine amide to L-carnitine can also be carried out very well by means of immobilized microorganisms. […] Suitable microorganism immobilizates are immobilizates based on alginate or chitosan.

| SMILES | Activity (mU/mg) [1] [mU/mg] | Activity (mU/ml) [1] [mU/ml] | Activity (mU/mg) (L-carnitine amidase [2]) | Activity (mU/ml) (L-carnitine amidase [2]) | OD660 (strain DSM 6230) | Hydrolysis / conversion by L-carnitine amidase (in words) (L-carnitine amidase [3]) | Rel. activity (%) (L-carnitine amidase [3]) | Conversion by whole cells (in words) [4] | Induction of L-carnitine amidase (in words) (L-carnitine amidase [2]) | Growth of the strain on the substance (in words) (strain DSM 6230) | L-amidase activity, relative to the total amidase activity ([1]; raw extract, enzyme test stopped after 10 min.) [%] | L-amidase activity, relative to the total amidase activity ([1]; raw extract, enzyme test stopped after 5 hours) | L-amidase activity (%) ([1]; raw extract, relative to total amidase activity) | Activity of whole cells, greater than that of a macerated cell suspension of the same concentration [4] [%] |
| --- | --- | --- | --- | --- | --- | --- | --- | --- | --- | --- | --- | --- | --- | --- |
| C[N+](C)(C)C[C@@H](O)CC(N)=O [D-carnitine amide] | 0 | 0 | 166 | 497 | 0.8 | does not hydrolyze | 0 |  |  |  |  |  |  |  |
| C[N+](C)(C)C[C@@H](O)CC#N [D-carnitine nitrile] |  |  | 90 | 206 | 0.8 |  | 0 |  |  |  |  |  |  |  |
| C[N+](C)(C)C[C@@H](O)CC(=O)[O-] [D-carnitine] |  |  |  |  |  |  |  | not converted |  |  |  |  |  |  |
| NCC(N)=O [Glycine amide] |  |  | 43 | 180 | 1.0 |  | 0 |  | not induced | good growth substrates |  |  |  |  |
| CC(C)C(N)=O [Isobutyramide] |  |  | 41 | 193 | 1.1 |  | 0 |  |  |  |  |  |  |  |
| C[N+](C)(C)C[C@H](O)CC(N)=O [L-carnitine amide] | 1960 | 8624 | 1706 | 8530 | 3.5 | hydrolyzes | 100 |  | induced; also recorded: best of the inductors tested | Good growth | 100 | over 99% | 100 | 64 |
| C[N+](C)(C)C[C@H](O)CC#N [L-carnitine nitrile] |  |  | 65 | 183 | 0.8 |  | 0 |  |  |  |  |  |  |  |
| CC(C)C[C@H](N)C(N)=O [L-leucine amide] |  |  | 9 | 34 | 2.5 |  | 0 |  | not induced | Good growth |  |  |  |  |
| NC(=O)[C@@H](N)Cc1ccccc1 [L-phenylalanine amide] |  |  | 72 | 172 | 0.6 |  | 0 |  |  |  |  |  |  |  |
| NC(=O)[C@@H]1CCCN1 [L-proline amide] |  |  | 54 | 250 | 1.0 |  | 0 |  |  |  |  |  |  |  |
| CC(C)[C@H](N)C(N)=O [L-valine amide] |  |  | 12 | 32 | 0.9 |  | 0 |  |  |  |  |  |  |  |
| CC(O)C(N)=O (stereo not drawn) [Lactic acid amide] |  |  | 28 | 55 | 0.8 |  | 0 |  |  |  |  |  |  |  |
| C=C(C)C(N)=O [Methacrylamide] |  |  | 76 | 237 | 0.8 |  | 0 |  |  |  |  |  |  |  |
| CCC(N)=O [Propionamide] |  |  | 29 | 129 | 1.1 |  | 0 |  |  |  |  |  |  |  |
